Measurements published in the CheMixHub viscosity set.
Several values for one entry are separate records, joined by “and”; a condition that tells them apart may be missing. Identical values can stand only once.

Assay: xn = mol fraction of the nth substance listed

ClCCl + CCCCN
viscosity [mPa·s], 101 kPa
Conditions	x2 = 0.102	x2 = 0.1371	x2 = 0.2306	x2 = 0.3081	x2 = 0.435	x2 = 0.5159	x2 = 0.5926	x2 = 0.6971	x2 = 0.8192	x2 = 0.9041
293.15 K	0.441	0.443	0.448	0.452	0.46	0.466	0.471	0.477	0.486	0.493
298.15 K	0.418	0.421	0.425	0.427	0.434	0.439	0.443	0.446	0.454	0.457
303.15 K	0.401	0.403	0.406	0.409	0.414	0.417	0.42	0.424	0.429	0.433
308.15 K	0.385	0.386	0.39	0.392	0.395	0.397	0.4	0.402	0.405	0.408

O=C[C@H](O)[C@@H](O)[C@@H](O)[C@H](O)CO + O
viscosity
Conditions	298.15 K	308.15 K
101 kPa, x1 = 0.0002	0.9056 mPa·s and 0.9056 mPa·s	–
101 kPa, x1 = 0.001	0.9592 mPa·s and 0.9592 mPa·s	–
101 kPa, x1 = 0.0018	0.9761 mPa·s and 0.9761 mPa·s	–
101 kPa, x1 = 0.002	0.9675 mPa·s and 0.9675 mPa·s	–
101 kPa, x1 = 0.003502	0.971 mPa·s	–
101 kPa, x1 = 0.00393	0.9552 mPa·s	0.814 mPa·s
101 kPa, x1 = 0.00634	1.043 mPa·s	0.8355 mPa·s
101 kPa, x1 = 0.01867	1.505 mPa·s	–
101.3 kPa, x1 = 0.02116	1.511 mPa·s	–

CC(=O)O + CCOC(C)=O
viscosity [mPa·s], 101 kPa
Conditions	298.15 K	313.15 K
x1 = 0.1049	0.459	–
x1 = 0.207	0.4949	–
x1 = 0.3037	0.5331	–
x1 = 0.399	0.5762	–
x1 = 0.4985	0.6289	–
x1 = 0.5996	0.689	–
x1 = 0.6988	0.7668	–
x1 = 0.8011	0.859	–
x1 = 0.8742	0.943	–
x2 = 0.102	0.97	0.791
x2 = 0.2035	0.867	0.707
x2 = 0.3037	0.771	0.634
x2 = 0.4101	0.697	0.579
x2 = 0.4979	0.644	0.538
x2 = 0.6006	0.582	0.488
x2 = 0.6962	0.543	0.454
x2 = 0.7971	0.499	0.419
x2 = 0.9048	0.46	0.388

C[Si]1(C)O[Si](C)(C)O[Si](C)(C)O[Si](C)(C)O1 + c1ccccc1
101 kPa
Conditions	viscosity [mPa·s]
298.15 K, x1 = 0.0341	0.6224
298.15 K, x1 = 0.0699	0.6486
298.15 K, x1 = 0.1407	0.7099
298.15 K, x1 = 0.2235	0.7944
298.15 K, x1 = 0.2938	0.875
298.15 K, x1 = 0.3751	0.9814
298.15 K, x1 = 0.4689	1.113
298.15 K, x1 = 0.6211	1.363
298.15 K, x1 = 0.6777	1.466
298.15 K, x1 = 0.751	1.608
298.15 K, x1 = 0.8434	1.804
298.15 K, x1 = 0.8753	1.88
298.15 K, x1 = 0.9028	1.939
298.15 K, x1 = 0.9291	2.01
308.15 K, x1 = 0.0886	0.5768
308.15 K, x1 = 0.3517	0.818
308.15 K, x1 = 0.602	1.127
308.15 K, x1 = 0.7741	1.39
308.15 K, x1 = 0.8544	1.527
308.15 K, x1 = 0.9373	1.682
318.15 K, x1 = 0.0888	0.507
318.15 K, x1 = 0.3526	0.714
318.15 K, x1 = 0.6036	0.971
318.15 K, x1 = 0.7763	1.186
318.15 K, x1 = 0.8562	1.298
318.15 K, x1 = 0.9134	1.393

ClCCl + ClCCCl
303.15 K, 101.3 kPa
Conditions	viscosity [mPa·s]
x2 = 0.0618	0.408
x2 = 0.1258	0.4242
x2 = 0.2132	0.4486
x2 = 0.3029	0.474
x2 = 0.419	0.5092
x2 = 0.5226	0.5436
x2 = 0.6033	0.5714
x2 = 0.7998	0.6445
x2 = 0.8933	0.6822
x2 = 0.9517	0.7068
